Results on one substance are retold here after patent US9463216B2 (priority 2012, dated 2016).

The target in the assay is PA (Bacillus anthracis, UniProt P13423). Type of assay: binding, B. anthracis.
PA, sequence (P13423 30-764 limits assumed): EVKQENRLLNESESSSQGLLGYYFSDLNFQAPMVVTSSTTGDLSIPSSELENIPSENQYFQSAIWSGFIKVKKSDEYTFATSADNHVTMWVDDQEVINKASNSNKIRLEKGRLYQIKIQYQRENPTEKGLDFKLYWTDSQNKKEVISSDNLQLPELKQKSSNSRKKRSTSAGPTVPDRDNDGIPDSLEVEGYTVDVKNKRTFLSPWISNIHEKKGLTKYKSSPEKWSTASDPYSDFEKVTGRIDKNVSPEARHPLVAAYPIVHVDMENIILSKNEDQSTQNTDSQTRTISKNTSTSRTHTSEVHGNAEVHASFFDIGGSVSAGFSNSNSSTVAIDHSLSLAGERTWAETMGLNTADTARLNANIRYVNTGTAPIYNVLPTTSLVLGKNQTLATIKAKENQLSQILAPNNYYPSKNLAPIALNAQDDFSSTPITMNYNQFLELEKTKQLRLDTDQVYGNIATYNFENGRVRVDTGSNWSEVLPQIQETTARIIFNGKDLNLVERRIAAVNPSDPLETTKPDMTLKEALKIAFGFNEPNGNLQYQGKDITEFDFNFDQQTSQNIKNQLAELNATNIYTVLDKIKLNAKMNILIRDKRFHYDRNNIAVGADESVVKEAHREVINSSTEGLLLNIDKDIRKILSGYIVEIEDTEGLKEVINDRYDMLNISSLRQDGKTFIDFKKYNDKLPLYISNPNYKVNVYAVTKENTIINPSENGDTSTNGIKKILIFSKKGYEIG

Regarding poly-γ-D-glutamic acid [Compound 3], the “form complexes with PA” value is reported as “can form complexes with PA”.
